Results published in ChEMBL document CHEMBL1201862, “PubChem BioAssay data set” (2004).
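Compound exposure: 48 hours, 5 concentrations, 96-well plates. Here, GI50 denotes the concentration required for 50% inhibition of growth.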 Active and inactive are the calls of the source. Rule as the data show it: active = GI50 up to about 1.1 µM and inactive = higher.

Columns and labels:
Test in all cases: growth of human tumour cells (NCI), 48 h
NCI/ADR-RES = system: NCI/ADR-RES
786-0 = system: 786-0
ACHN = system: ACHN
BT-549 = system: BT-549
RPMI-8226 = system: RPMI-8226
CAKI-1 = system: CAKI-1
NCI-H226 = system: NCI-H226
MDA-MB-435 = system: MDA-MB-435
TK-10 = system: TK-10
A549 = system: A549
NCI-H522 = system: NCI-H522
SK-MEL-28 = system: SK-MEL-28
IGROV-1 = system: IGROV-1
EKVX = system: EKVX
NCI-H460 = system: NCI-H460
HOP-92 = system: HOP-92
A498 = system: A498
UO-31 = system: UO-31
SW-620 = system: SW-620
SK-MEL-5 = system: SK-MEL-5
MOLT-4 = system: MOLT-4
U-251 = system: U-251
KM12 = system: KM12
Hs-578T = system: Hs-578T
NCI-H23 = system: NCI-H23
HOP-62 = system: HOP-62
SF-295 = system: SF-295
K562 = system: K562
LOX IMVI = system: LOX IMVI
HCC 2998 = system: HCC 2998
CCRF-CEM = system: CCRF-CEM
T47D = system: T47D
PC-3 = system: PC-3
SNB-19 = system: SNB-19
M14 = system: M14
MDA-N = system: MDA-N
SK-OV-3 = system: SK-OV-3
HT-29 = system: HT-29
OVCAR-8 = system: OVCAR-8
OVCAR-5 = system: OVCAR-5
OVCAR-4 = system: OVCAR-4
HCT-116 = system: HCT-116
SF-268 = system: SF-268
SR = system: SR
SNB-75 = system: SNB-75
UACC-257 = system: UACC-257
DU-145 = system: DU-145
HCT-15 = system: HCT-15
COLO 205 = system: COLO 205
SK-MEL-2 = system: SK-MEL-2
SN12C = system: SN12C
MDA-MB-231 = system: MDA-MB-231
OVCAR-3 = system: OVCAR-3
UACC-62 = system: UACC-62
MCF7 = system: MCF7
Malme-3M = system: Malme-3M
RXF 393 = system: RXF 393
HL-60 = system: HL-60
SF-539 = system: SF-539

## C#C[C@]1(O)CC[C@H]2[C@@H]3CCC4=C/C(=N/OCCN(C)C)CC[C@]4(C)[C@H]3CC[C@@]21C
NCI/ADR-RES
  GI50: 41.7 µM (inactive)
786-0
  GI50: 29.2 µM (inactive)
ACHN
  GI50: 54.7 µM (inactive)
BT-549
  GI50: 65.9 µM (inactive)
RPMI-8226
  GI50: 28.4 µM (inactive)
CAKI-1
  GI50: 78 µM (inactive)
NCI-H226
  GI50: 27.3 µM (inactive)
MDA-MB-435
  GI50: 6.7 µM (inactive)
TK-10
  GI50: > 100 µM (inactive)
A549
  GI50: 31.7 µM (inactive)
NCI-H522
  GI50: 16.3 µM (inactive)
SK-MEL-28
  GI50: 51.5 µM (inactive)
IGROV-1
  GI50: 50.7 µM (inactive)
EKVX
  GI50: 32.3 µM (inactive)
NCI-H460
  GI50: 21.8 µM (inactive)
HOP-92
  GI50: 52.8 µM (inactive)
A498
  GI50: 41.4 µM (inactive)
UO-31
  GI50: 62.5 µM (inactive)
SW-620
  GI50: 28.1 µM (inactive)
SK-MEL-5
  GI50: 13.2 µM (inactive)
MOLT-4
  GI50: 32.9 µM (inactive)
U-251
  GI50: 33.6 µM (inactive)
KM12
  GI50: 52 µM (inactive)
Hs-578T
  GI50: 26.9 µM (inactive)
NCI-H23
  GI50: 36.1 µM (inactive)
HOP-62
  GI50: 29.9 µM (inactive)
SF-295
  GI50: 6.97 µM (inactive)
K562
  GI50: 6.82 µM (inactive)
LOX IMVI
  GI50: 37.8 µM (inactive)
HCC 2998
  GI50: 41 µM (inactive)
CCRF-CEM
  GI50: 16.3 µM (inactive)
T47D
  GI50: > 100 µM (inactive)
PC-3
  GI50: 27.7 µM (inactive)
SNB-19
  GI50: 27.9 µM (inactive)
M14
  GI50: 15 µM (inactive)
MDA-N
  GI50: 11.1 µM (inactive)
SK-OV-3
  GI50: 40.1 µM (inactive)
HT-29
  GI50: 6.78 µM (inactive)
OVCAR-8
  GI50: 49.7 µM (inactive)
OVCAR-5
  GI50: 56.8 µM (inactive)
OVCAR-4
  GI50: > 100 µM (inactive)
HCT-116
  GI50: 25.6 µM (inactive)
SF-268
  GI50: 49.5 µM (inactive)
SR
  GI50: 12.1 µM (inactive)
SNB-75
  GI50: 30.1 µM (inactive)
UACC-257
  GI50: 52.5 µM (inactive)
DU-145
  GI50: 22.3 µM (inactive)
HCT-15
  GI50: 36.1 µM
COLO 205
  GI50: 26.7 µM (inactive)
SK-MEL-2
  GI50: 31.7 µM (inactive)
SN12C
  GI50: 44.3 µM (inactive)
MDA-MB-231
  GI50: 39.9 µM (inactive)
OVCAR-3
  GI50: 22 µM (inactive)
UACC-62
  GI50: 32.5 µM (inactive)
MCF7
  GI50: 25.1 µM (inactive)
Malme-3M
  GI50: 22.1 µM (inactive)

## CC(NNC(=O)c1cc[n+]([BH2-]C#N)cc1)c1ccc(Cl)cc1Cl (stereo unspecified)
NCI/ADR-RES
  GI50: 31.6 µM (inactive)
786-0
  GI50: 49.1 µM (inactive)
ACHN
  GI50: 42.7 µM (inactive)
BT-549
  GI50: 46.2 µM (inactive)
RPMI-8226
  GI50: 17.6 µM (inactive)
CAKI-1
  GI50: 68.2 µM (inactive)
NCI-H226
  GI50: 14.2 µM (inactive)
MDA-MB-435
  GI50: 42.1 µM (inactive)
TK-10
  GI50: 48.6 µM (inactive)
A549
  GI50: 37.2 µM (inactive)
RXF 393
  GI50: 43.3 µM (inactive)
NCI-H522
  GI50: 28.6 µM (inactive)
SK-MEL-28
  GI50: 44.5 µM (inactive)
IGROV-1
  GI50: 51.8 µM (inactive)
EKVX
  GI50: 24.5 µM (inactive)
HL-60
  GI50: 23.8 µM (inactive)
NCI-H460
  GI50: 44.1 µM (inactive)
HOP-92
  GI50: 37.4 µM (inactive)
A498
  GI50: > 100 µM (inactive)
UO-31
  GI50: 26.2 µM (inactive)
SW-620
  GI50: 42.8 µM (inactive)
SF-539
  GI50: 53.7 µM (inactive)
SK-MEL-5
  GI50: 23 µM (inactive)
MOLT-4
  GI50: 17.5 µM (inactive)
U-251
  GI50: 48.2 µM (inactive)
KM12
  GI50: 34.8 µM (inactive)
Hs-578T
  GI50: 39.5 µM (inactive)
SF-295
  GI50: 32.5 µM (inactive)
K562
  GI50: 24.2 µM (inactive)
LOX IMVI
  GI50: 29.2 µM (inactive)
HCC 2998
  GI50: 57.1 µM (inactive)
CCRF-CEM
  GI50: 33.3 µM (inactive)
T47D
  GI50: 34.5 µM (inactive)
PC-3
  GI50: 33.6 µM (inactive)
SNB-19
  GI50: 41.4 µM (inactive)
M14
  GI50: 42.4 µM (inactive)
MDA-N
  GI50: > 100 µM (inactive)
OVCAR-8
  GI50: 31.5 µM (inactive)
OVCAR-5
  GI50: 42.2 µM (inactive)
OVCAR-4
  GI50: 30.7 µM (inactive)
HCT-116
  GI50: 22.5 µM (inactive)
SF-268
  GI50: 41.2 µM (inactive)
SR
  GI50: 30.9 µM (inactive)
SNB-75
  GI50: 31.8 µM (inactive)
UACC-257
  GI50: 42.1 µM (inactive)
DU-145
  GI50: 68.5 µM (inactive)
HCT-15
  GI50: 44.8 µM
COLO 205
  GI50: 60.7 µM (inactive)
SK-MEL-2
  GI50: 49.5 µM (inactive)
SN12C
  GI50: > 100 µM (inactive)
MDA-MB-231
  GI50: 35 µM (inactive)
OVCAR-3
  GI50: 25 µM (inactive)
UACC-62
  GI50: 55.8 µM (inactive)
MCF7
  GI50: 36 µM (inactive)
Malme-3M
  GI50: 43.9 µM (inactive)
